In ChEMBL document CHEMBL2176907, “Identification of multiple 5-HT₄ partial agonist clinical candidates for the treatment of Alzheimer's disease” (J Med Chem, 2012):
Activity calls are given as the source filed them. The rule behind the calls is not given here.

Key:
[1] = Intrinsic clearance in human liver microsomes; type: ADME, Microsome; details: read-out: CLH
[2] = Ratio of free drug concentration in brain to free drug concentration in plasma in sc dosed Sprague-Dawley rat; type: ADME, organism-based; details: read-out: K(p,uu,brain)
[3] = Oral bioavailability in dog; type: ADME, organism-based, Canis lupus familiaris; details: in vivo
[4] = Clearance in iv dosed dog; type: ADME, organism-based, Canis lupus familiaris; details: in vivo
[5] = tested on: Brain; assay: Free AUC (0 to 4 hrs) in sc dosed Sprague-Dawley rat brain by LC-MS/MS analysis; type: ADME, organism-based; details: in vivo
[6] = tested on: Plasma; assay: Free AUC (0 to 4 hrs) in sc dosed Sprague-Dawley rat plasma by LC-MS/MS analysis; type: ADME, organism-based; details: in vivo
[7] = tested on: Canis familiaris; assay: Gastrointestinal toxicity in beagle dog assessed as decrease in food intake administered as repeated dose for 7 days measured up to 1 month; type: organism-based, Canis lupus familiaris; details: in vivo, 168 h
[8] = tested on: Rattus norvegicus; assay: Gastrointestinal toxicity in male Sprague-Dawley rat assessed as reduction in body weight at 100 mg/kg administered as repeated dose for 7 days measured up to 1 month; type: organism-based; design: dose 100 mg/kg; details: in vivo, 168 h
[9] = Clearance in iv dosed rat; type: ADME, organism-based; details: in vivo
[10] = Intrinsic clearance in rat liver microsomes; type: ADME, Microsome; details: read-out: CLH
[11] = tested on: Rattus norvegicus; assay: Procognitive activity in Sprague-Dawley rat assessed as increase in acetylcholine level in prefrontal cortex at 1 mg/kg, sc after 3 hrs by brain microdialysis relative to control; type: functional, organism-based; design: dose 1 mg/kg
[12] = Apparent permeability from apical to basal side of RRCK cells at 2 uM after 2 hrs by transwell assay; type: ADME, cell-based, Canis lupus familiaris, MDCKII-LE; details: dog, MDCK
[13] = tested on: Canis familiaris; assay: Gastrointestinal toxicity in beagle dog assessed as emesis at 30 mg/kg administered as repeated dose for 7 days measured up to 1 month; type: organism-based, Canis lupus familiaris; design: dose 30 mg/kg; details: in vivo, 168 h
[14] = tested on: Canis familiaris; assay: Neurotoxicity in beagle dog assessed as convulsions at 30 mg/kg administered as repeated dose for 7 days measured up to 1 month; type: toxicity, organism-based, Canis lupus familiaris; design: dose 30 mg/kg; details: in vivo, 168 h
[15] = Intrinsic clearance in dog liver microsomes; type: ADME, Canis lupus familiaris, Microsome; details: read-out: CLH
[16] = tested on: Rattus norvegicus; assay: Displacement of [3H]SB207145 from 5HT4 receptor in sc dosed Sprague-Dawley rat striatal membrane incubated for 45 mins prior to [3H]SB207145-adminsitration measured after 15 mins; type: functional, organism-based; details: Striatum
[17] = target: CYP2D6 (Homo sapiens, UniProt P10635); assay: Inhibition of CYP2D6 in human liver microsomes using dextromethorphan as substrate at 3 uM; type: ADME, Microsome; details: probe dextromethorphan
Chain of CYP2D6 (P10635 whole entry): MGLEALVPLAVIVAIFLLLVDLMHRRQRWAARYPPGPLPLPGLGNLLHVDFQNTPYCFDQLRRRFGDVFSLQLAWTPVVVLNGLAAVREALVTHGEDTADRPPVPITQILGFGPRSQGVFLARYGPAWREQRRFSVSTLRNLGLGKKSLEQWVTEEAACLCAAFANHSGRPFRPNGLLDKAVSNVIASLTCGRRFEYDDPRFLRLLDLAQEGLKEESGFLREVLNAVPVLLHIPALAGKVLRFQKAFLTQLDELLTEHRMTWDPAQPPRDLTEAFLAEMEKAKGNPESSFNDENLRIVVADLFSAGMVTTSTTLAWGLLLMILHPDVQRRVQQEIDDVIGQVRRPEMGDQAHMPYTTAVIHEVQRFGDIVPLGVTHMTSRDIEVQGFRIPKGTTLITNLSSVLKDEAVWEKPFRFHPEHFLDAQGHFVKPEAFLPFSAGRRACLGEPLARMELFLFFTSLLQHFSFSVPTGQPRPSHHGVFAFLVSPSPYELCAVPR

[18] = Oral bioavailability in rat; type: ADME, organism-based; details: in vivo
[19] = tested on: Rattus norvegicus; assay: Neurotoxicity in Sprague-Dawley rat assessed as convulsions at 100 mg/kg administered as repeated dose for 7 days measured up to 1 month; type: toxicity, organism-based; design: dose 100 mg/kg; details: in vivo, 168 h
[20] = tested on: Canis familiaris; assay: Cardiotoxicity in beagle dog assessed as increase in systolic blood pressure at 10 mg/kg administered as repeated dose for 7 days measured up to 1 month; type: toxicity, organism-based, Canis lupus familiaris, Artery; design: dose 10 mg/kg; details: in vivo, 168 h
[21] = tested on: Rattus norvegicus; assay: Gastrointestinal toxicity in Sprague-Dawley rat assessed as decrease in food intake administered as repeated dose for 7 days measured up to 1 month; type: organism-based; details: in vivo, 168 h
[22] = tested on: Rattus norvegicus; assay: Receptor occupancy of 5HT4 receptor in Sprague-Dawley rat brain at 1 mg/kg, sc up to 4 hrs; type: functional; details: route subcutaneous
[23] = tested on: Rattus norvegicus; assay: Procognitive activity in Wistar rat assessed as reversal of scopolamine-induced learning deficit at […], sc administered 30 mins prior to scopolamine-challenge measured on acquisition days 3 and 4 by Morris water maze testing; type: functional, organism-based; design: dose 0.032 mg/kg
[24] = tested on: Rattus norvegicus; assay: Receptor occupancy of 5HT4 receptor in Wistar rat at […], sc; details: route subcutaneous
[25] = AUC (0 to 4 hrs) in sc dosed Sprague-Dawley rat CSF by LC-MS/MS analysis; type: ADME, organism-based; design: time < 4 hr, route subcutaneous

OC1(CN2CCC(COc3noc4cccc(O[C@@H]5CCOC5)c34)CC2)CCOCC1 [PF-04995274]
CLint scaled [1]: 33 mL/min/kg | Kp uu [2]: 0.7 | bioavailability [3]: 47% | clearance [4]: 21.2 mL/min/kg | fAUC [5]: 706 nM·h | fAUC [6]: 1054 nM·h | Activity [7]: Toxic | Activity [8]: Toxic | clearance [9]: 81.8 mL/min/kg | CLint scaled [10]: 48.9 mL/min/kg | Activity [11]: Active | Papp A→B at 2 h, 2 µM [12]: 30 ×10⁻⁶ cm/s | Activity [13]: Toxic | Activity [14]: Toxic | CLint scaled [15]: 27.9 mL/min/kg | Activity [16]: Dose-dependent effect | inhibition at 3 µM [17]: 13% | bioavailability [18]: 40% | Activity [19]: Toxic | Activity [20]: Toxic | Activity [21]: Toxic | Occ [22]: >90% | Activity [23]: Active | Occ [24]: >90% | AUC(0-t) at 4 h [25]: 0.519 µM·h
